Results published in PMC8954792 (Viruses, 2022).

Test system: authentic SARS-CoV-2 Delta (B.1.617.2) variant
Experiment: microbe, parasite or virus in culture
Format: cell-based
Details: Severe acute respiratory syndrome coronavirus 2, Vero C1008

Structure (SMILES) | IC50 [nM]
C#CCOc1ccc(CCN2C(=O)/C(=C/c3ccc(-c4ccc(Cl)c(C(=O)O)c4)o3)SC2=S)cc1 [FD007] | 52.5
C#CCOCCOc1ccc(CCN2C(=O)/C(=C/c3ccc(-c4ccc(Cl)c(C(=O)O)c4)o3)SC2=S)cc1 [FD008] | 95.9
CCOc1ccc(CCN2C(=O)/C(=C/c3ccc(-c4ccc(Cl)c(C(=O)O)c4)o3)SC2=S)cc1 [FD009] | 13.5
O=C(O)c1cc(-c2ccc(/C=C3\SC(=S)N(CCc4ccc(OCc5ccc(F)cc5)cc4)C3=O)o2)ccc1Cl [FD010] | 26.3
O=C(O)c1cc(-c2ccc(/C=C3\SC(=S)N(CCc4ccc(OCC5CC5)cc4)C3=O)o2)ccc1Cl [FD012] | 126
O=C(O)c1cc(-c2ccc(/C=C3\SC(=S)N(CCc4ccc(OCc5ccsc5)cc4)C3=O)o2)ccc1Cl [FD013] | 60.3
CCC(CC)COC(=O)[C@H](C)N[P@](=O)(OC[C@H]1O[C@@](C#N)(c2ccc3c(N)ncnn23)[C@H](O)[C@@H]1O)Oc1ccccc1 [Remdesivir, remdesivir, reference compound] | 18.6
